In patent US20240391954A1, “MC4R AGONIST PEPTIDES” (The Regents of the University of Michigan, priority 2021, published 2024):
Like-named read-outs stand apart in the source and are kept apart here. Positions of bridges follow the written chain, without caps; N, C: chain ends. Non-standard residues stand in square brackets, D forms with d. Residues, ends and D or L forms follow the SMILES beside them. dPhe(4-Br) = N[C@H](Cc1ccc(Br)cc1)C(=O)O; dPhe(4-F) = N[C@H](Cc1ccc(F)cc1)C(=O)O; Cit = NC(=O)NCCC[C@H](N)C(=O)O; Nle = CCCC[C@H](N)C(=O)O; dAbu = CC[C@@H](N)C(=O)O; Aib = CC(C)(N)C(=O)O

What was measured:
[1] = Plasma protein binding (Centrifree ultrafiltration); type: in vitro ADME
Protocol: Solutions of test compound in DMSO were prepared at 1 mM, 100 uM and 10 uM, 5 ul of each solution of test compound was added to 495 uL plasma, and incubated at 25° C. for 5 min. Sample was added to a Centrifree® device, then centrifuged at 2000× g for 20 min to obtain desired filtrate volume. Initial plasma samples and ultrafiltrates were subjected to LC-MS/MS. % Free peptide=(concentration of ultrafiltrates/concentration of plasma)×100%. % Bound=100%−% Free

[2] = Mouse plasma stability; type: in vitro ADME; conditions: 37° C.; for half-life at 1 µM: pooled mouse plasma
Protocol: FIG. 3. Results of plasma stability testing for control peptides. Compounds shown were incubated in mouse plasma at 37° C. at 1 μM concentrations. 40 ul aliquots were removed at the times indicated and the reactions stopped with the addition of 160 μL cold acetonitrile containing 200 ng/ml of peptide internal standard (IS). The incubation solution was centrifuged at 3500 rpm for 10 minutes to precipitate protein. LC/MS/MS analysis was used to determine the % peptide remaining.
Pooled mouse plasma was prepared and stored at −80° C, prior to use, 396 μL mouse plasma was incubated at 37° C. for 5 minutes in 1.5 mL microcentrifuge tubes. 4 μL of 100 μM test or control compound/peptide was added to each tube and incubated for 0.5, 15, 30, 60, 120, or 240 minutes. An aliquot of 40 μL of each reaction was stopped by the addition of 4 volume of cold acetonitrile containing 200 ng/mL of […] solution was centrifuged at 3500 rpm for 10 minutes to precipitate protein. The supernatant was used for LC/MS/MS analysis. The natural log peak area ratio (compound peak area/internal standard peak area) was plotted against time and the gradient of the line determined.

[3] = target: T1, human MC3R (Homo sapiens, UniProt P41968); test: split-luciferase cAMP sensor assay, agonist mode (measurement window 1), hMC3R; type: cell-based; conditions: for Emax: read-out: MC3R cAMP % max activation; for MC4R selectivity vs MC3R: MC4R versus MC3R
T1 construct: expressed in transfected cells; host or cells: HEK-293 cells stably expressing the GScAMP22F split-luciferase cAMP sensor (parent reporter line from Promega); MC3R clone generated in-house, G418 selection
Method in brief: (§1)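 Live stable cell lines carrying receptor plus GloSensor cAMP22f split-luciferase, loaded with 4% D-luciferin in serum-free medium (~1% serum estimated during assay). Luminescence recorded during in-line peptide addition; direct agonist effect read in window 1, with 20 μM forskolin as normalization reference. EC50 from four-parameter sigmoid fit.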

[4] = target: T2, human MC4R (Homo sapiens, UniProt P32245); test: split-luciferase cAMP sensor assay, agonist mode (measurement window 1), hMC4R; type: cell-based; conditions: for Emax / EC50: agonist mode; for Emax: read-out: MC4R cAMP % max activation; for EC50: read-out: MC4R cAMP EC50
T2 construct: host or cells: HEK-293 cells stably expressing the GScAMP22F split-luciferase cAMP sensor and hMC4R, G418 selection
Method in brief: as §1

[5] = target: T3, human MC1R (Homo sapiens, UniProt Q01726); test: split-luciferase cAMP sensor assay, agonist mode, hMC1R; type: cell-based; conditions: MC4R versus MC1R
T3 construct: expressed in transfected cells; host or cells: HEK-293 cells stably expressing hMC1R and the GScAMP22F cAMP sensor
Method in brief: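 HEK-293 cells stably expressing hMC1R and the GScAMP22F split-luciferase cAMP sensor, preloaded 120 min at 37° C with D-luciferin in serum-free medium. Peptide responses were taken as peak luminescence over 2-13 min minus 2-min baseline, normalized to the α-MSH ECmax. EC50 was obtained from a four-parameter variable-slope fit.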

[6] = 1.0 uM, read-out: Protein Binding 1.0 uM (converted)
[7] = 10.0 uM, read-out: Protein Binding 10.0 uM (converted)
[8] = agonist mode, hMC3R stable cell line
[9] = % maximal activation, agonist mode
[10] = HEK-293 cells stably expressing hMC4R

T2 sequence (P32245 whole entry): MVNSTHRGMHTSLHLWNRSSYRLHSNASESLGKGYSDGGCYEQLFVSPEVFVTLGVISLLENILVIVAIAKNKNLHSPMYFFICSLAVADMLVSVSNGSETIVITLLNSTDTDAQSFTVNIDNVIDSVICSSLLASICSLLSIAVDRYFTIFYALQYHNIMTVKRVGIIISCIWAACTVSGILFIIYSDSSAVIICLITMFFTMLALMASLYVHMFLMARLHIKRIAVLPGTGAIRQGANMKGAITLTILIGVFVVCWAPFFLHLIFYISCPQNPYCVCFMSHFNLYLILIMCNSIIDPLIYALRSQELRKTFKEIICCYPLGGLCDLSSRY
T3 sequence (Q01726 whole entry): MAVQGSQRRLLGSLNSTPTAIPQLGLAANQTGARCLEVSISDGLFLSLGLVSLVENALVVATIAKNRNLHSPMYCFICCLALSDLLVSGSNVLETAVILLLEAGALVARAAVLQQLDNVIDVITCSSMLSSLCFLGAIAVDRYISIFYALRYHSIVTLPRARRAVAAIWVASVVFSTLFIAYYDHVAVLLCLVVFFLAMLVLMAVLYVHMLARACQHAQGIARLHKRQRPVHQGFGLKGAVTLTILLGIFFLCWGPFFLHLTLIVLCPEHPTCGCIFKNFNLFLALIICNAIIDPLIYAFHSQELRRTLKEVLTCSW
T1 sequence (P41968 whole entry): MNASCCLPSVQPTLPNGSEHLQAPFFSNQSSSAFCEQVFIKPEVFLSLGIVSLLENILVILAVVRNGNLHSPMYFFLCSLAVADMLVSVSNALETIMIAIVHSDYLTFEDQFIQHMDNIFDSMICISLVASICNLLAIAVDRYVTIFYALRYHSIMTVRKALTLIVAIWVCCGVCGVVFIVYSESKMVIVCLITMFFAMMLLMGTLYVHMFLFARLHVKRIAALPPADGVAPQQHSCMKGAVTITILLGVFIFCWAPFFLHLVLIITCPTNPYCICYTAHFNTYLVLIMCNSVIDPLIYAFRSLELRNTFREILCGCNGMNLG

Row | Compound | fraction unbound at 0.1 uM [1] | fraction unbound [1, 6] | fraction unbound [1, 7] | half-life [2] [h] | Emax [3, 8] [%] | MC4R selectivity vs MC1R [4] | MC4R selectivity vs MC3R [4] | Emax ([4]; hMC4R stable cell line) [%] | EC50 ([4]; hMC4R stable cell line) [nM] | fraction unbound at 5 min, 0.1 µM [1] | fraction unbound at 5 min, 1 µM ([1]; 1.0 uM) | fraction unbound at 5 min, 10 µM ([1]; 10.0 uM) | half-life at 1 µM [2] [h] | Emax [3, 9] [%] | MC4R selectivity vs MC3R [3] | MC4R selectivity vs MC1R [5] | Emax ([4]; % maximal activation) [%] | EC50 [4, 10] [nM] | EC50 ([3]; HEK-293 cells stably expressing hMC3R, agonist mode, read-out: MC3R cAMP EC50) [nM]
1 | CC(=O)N[C@@H](CCCNC(=N)N)C(=O)N[C@H]1CSSC[C@@H](C(N)=O)NC(=O)[C@@H](Cc2c[nH]c3ccccc23)NC(=O)[C@H](CCCNC(=N)N)NC(=O)[C@@H](Cc2ccc(F)cc2)NC(=O)[C@H](CCCNC(=N)N)NC(=O)[C@@H](C)NC1=O [CTX-1236, Arg-cyclo(Cys-D-Ala-Arg-D-Phe(4-F)-Arg-D-Trp-Cys)] (Ac-RC[dA]R[dPhe(4-F)]R[dW]C-NH2; disulfide 2-8) | 0.55 | 0.51 | 0.49 | 3.78 | 66 | 2.01 | 1.36 | 97 | 1.9 | – | – | – | – | – | – | – | – | – | –
2 | CC(=O)N[C@@H](CCCNC(=N)N)C(=O)N[C@H]1CSSC[C@@H](C(N)=O)NC(=O)[C@@H](Cc2c[nH]c3ccccc23)NC(=O)[C@H](CCCNC(=N)N)NC(=O)[C@@H](Cc2ccc(Br)cc2)NC(=O)[C@H](CCCNC(=N)N)NC(=O)C(C)(C)NC1=O [CTX-1246, Arg-cyclo(Cys-Aib-Arg-D-Phe(4-Br)-Arg-D-Trp-Cys)] (Ac-RC[Aib]R[dPhe(4-Br)]R[dW]C-NH2; disulfide 2-8 (inferred)) | – | – | – | – | 21 | – | – | – | – | 0.27 | 0.56 | 0.57 | > 4 | – | – | – | – | – | –
3 | COc1ccc(C[C@H]2NC(=O)[C@H](CCCNC(=N)N)NC(=O)[C@@H](C)NC(=O)[C@@H](NC(=O)[C@H](CCCNC(=N)N)NC(C)=O)CSSC[C@@H](C(N)=O)NC(=O)[C@@H](Cc3c[nH]c4ccccc34)NC(=O)[C@H](CCCNC(=N)N)NC2=O)cc1 [CTX-1238, Arg-cyclo(Cys-D-Ala-Arg-D-Tyr(O-Me)-Arg-D-Trp-Cys)] (Ac-RC[dA]R[dY](Me)R[dW]C-NH2; disulfide 2-8 (inferred)) | – | – | – | – | 21 | 0.44 | 0.49 | 79 | – | 0.47 | 0.53 | 0.59 | 2.87 | – | – | – | – | – | –
4 | CC(=O)N[C@@H](CCCNC(=N)N)C(=O)N[C@H]1CSSC[C@@H](C(N)=O)NC(=O)[C@H](Cc2c[nH]c3ccccc23)NC(=O)[C@H](CCCNC(=N)N)NC(=O)[C@@H](Cc2ccccc2)NC(=O)[C@H](CCCNC(N)=O)NC(=O)[C@@H](C)NC1=O [CTX-1285, Arg-cyclo(Cys-D-Ala-Cit-D-Phe-Arg-Trp-Cys)] | – | – | – | – | – | – | – | – | – | 0.55 | 0.61 | 0.59 | > 4 | 28 | 2.9 | 134 | 94 | 1.7 | –
5 | CC(=O)N[C@@H](CCCNC(=N)N)C(=O)N[C@H]1CSSC[C@@H](C(N)=O)NC(=O)[C@@H](Cc2c[nH]c3ccccc23)NC(=O)[C@H](CCCNC(=N)N)NC(=O)[C@@H](Cc2ccccc2)NC(=O)[C@H](CCCNC(=N)N)NC(=O)[C@H](C)NC1=O [CTX-1268, Arg-cyclo(Cys-Ala-Arg-D-Phe-Arg-D-Trp-Cys)] (Ac-RCAR[dF]R[dW]C-NH2; disulfide 2-8) | 0.48 | 0.42 | 0.38 | 1.75 | – | – | – | – | – | – | – | – | – | 44 | 30 | 6.59 | 96 | – | –
6 | CC[C@H]1NC(=O)[C@@H](NC(=O)[C@H](CCCNC(=N)N)NC(C)=O)CSSC[C@@H](C(N)=O)NC(=O)[C@@H](Cc2c[nH]c3ccccc23)NC(=O)[C@H](CCCNC(=N)N)NC(=O)[C@@H](Cc2ccc(Br)cc2)NC(=O)[C@H](CCCNC(=N)N)NC1=O [CTX-1247, Arg-cyclo(Cys-D-Abu-Arg-D-Phe(4-Br)-Arg-D-Trp-Cys)] (Ac-RC[dAbu]R[dPhe(4-Br)]R[dW]C-NH2; disulfide 2-8 (inferred)) | – | – | – | – | 13 | 0.43 | 2.05 | 75 | 3.3 | 0.51 | 0.47 | 0.47 | 3.32 | – | – | – | – | – | –
7 | CC(=O)N[C@@H](CCCNC(=N)N)C(=O)N[C@H]1CSSC[C@@H](C(N)=O)NC(=O)[C@H](Cc2ccccc2)NC(=O)[C@H](CCCNC(=N)N)NC(=O)[C@@H](Cc2ccc(Br)cc2)NC(=O)[C@H](CCCNC(=N)N)NC(=O)[C@@H](C)NC1=O [CTX-1258, Arg-cyclo(Cys-D-Ala-Arg-D-Phe(4-Br)-Arg-Phe-Cys)] (Ac-RC[dA]R[dPhe(4-Br)]RFC-NH2; disulfide 2-8) | – | – | – | – | 36 | 0.53 | 3.04 | 92 | 2.4 | 0.53 | 0.5 | 0.5 | > 4 | – | – | – | – | – | –
8 | CCCC[C@H](NC(=O)[C@H](CCCNC(=N)N)NC(C)=O)C(=O)N[C@H]1CSSC[C@@H](C(N)=O)NC(=O)[C@H](Cc2c[nH]c3ccccc23)NC(=O)[C@H](CCCNC(=N)N)NC(=O)[C@@H](Cc2ccccc2)NC(=O)[C@H](CCCNC(=N)N)NC1=O [CTX-1228, Arg-Nle-cyclo(Cys-Arg-D-Phe-Arg-Trp-Cys)] (Ac-R[Nle]CR[dF]RWC-NH2; disulfide 3-8 (inferred)) | – | – | – | – | – | – | – | – | – | 0.63 | 0.61 | 0.61 | 0.917 | 93 | 8.38 | 3.16 | 102 | – | 1.6
9 | N=C(N)NCCC[C@@H]1NC(=O)[C@@H](Cc2ccccc2)NC(=O)[C@H](CCCNC(N)=O)NC(=O)CNC(=O)CSC[C@@H](C(N)=O)NC(=O)[C@H](Cc2c[nH]c3ccccc23)NC1=O [CTX-1646, Thioether-cyclo(Gly-Cit-D-Phe-Arg-Trp-Cys)] ({CH2CO}-G[Cit][dF]RWC-NH2; thioether N-6) | – | – | – | – | – | – | – | – | – | – | – | – | – | 70 | 193 | >770 | 103 | 13 | –
10 | N=C(N)NCCC[C@@H]1NC(=O)[C@@H](Cc2ccccc2)NC(=O)[C@H](Cc2c[nH]cn2)NC(=O)CNC(=O)CSC[C@@H](C(N)=O)NC(=O)[C@H](Cc2c[nH]c3ccccc23)NC1=O [CTX-1644, Thioether-cyclo(Gly-His-D-Phe-Arg-Trp-Cys)] ({CH2CO}-GH[dF]RWC-NH2; thioether N-6) | – | – | – | – | – | – | – | – | – | – | – | – | – | 107 | 53 | 4.84 | 111 | 2.3 | –
11 | CC(=O)N[C@H]1CSSC[C@@H](C(N)=O)NC(=O)[C@H](Cc2c[nH]c3ccccc23)NC(=O)[C@H](CCCNC(=N)N)NC(=O)[C@@H](Cc2ccccc2)NC(=O)[C@H](CCCNC(N)=O)NC(=O)CNC1=O [CTX-1630, cyclo(Cys-Gly-Cit-D-Phe-Arg-Trp-Cys)] (Ac-CG[Cit][dF]RWC-NH2; disulfide 1-7 (inferred)) | – | – | – | – | – | – | – | – | – | – | – | – | – | 35 | 28 | 1816 | 102 | – | –
12 | CC(=O)N[C@@H](CCCNC(=N)N)C(=O)N[C@H]1CSSC[C@@H](C(N)=O)NC(=O)[C@H](Cc2ccccc2)NC(=O)[C@H](CCCNC(=N)N)NC(=O)[C@@H](Cc2ccccc2)NC(=O)[C@H](CCCNC(=N)N)NC(=O)C(C)(C)NC1=O [CTX-1601, Arg-cyclo(Cys-Aib-Arg-D-Phe-Arg-Phe-Cys)] (Ac-RC[Aib]R[dF]RFC-NH2; disulfide 2-8) | – | – | – | – | – | – | – | – | – | – | – | – | – | 73 | 2.3 | 0.93 | 97 | – | –
